“And” between values parts separate entries of the source, which are not always exact repeats. Equal values may be shown once. Toxic doses and inconclusive results are not listed. Rule as the data show it: active = T/C of 150% or more; inactive = T/C below 125%.
Test system: L1210 leukemia ip in BDF1 mice, survival T/C
Assay: NCI In Vivo Anticancer Drug Screen. Data for tumor model L1210 Leukemia (intraperitoneal) in B6D2F1 (BDF1) mice
Conditions: endpoint: mean survival time, higher = longer survival
Outline: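 Each compound was tested against a transplantable tumor grown in mice. The endpoint was survival, with treated animals benchmarked against vehicle controls as a simple ratio.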

[1] = dose: 100.0 mg/kg/injection, schedule: Q01DX001 (ip), vehicle: saline with Tween-80
[2] = dose: 100.0 mg/kg/injection, schedule: Q04DX002 (ip), vehicle: saline with Tween-80
[3] = dose: 100.0 mg/kg/injection, schedule: Q04DX003 (ip), vehicle: saline with Tween-80
[4] = dose: 200.0 mg/kg/injection, schedule: Q01DX001 (ip), vehicle: saline with Tween-80
[5] = dose: 200.0 mg/kg/injection, schedule: Q04DX002 (ip), vehicle: saline with Tween-80
[6] = dose: 200.0 mg/kg/injection, schedule: Q04DX003 (ip), vehicle: saline with Tween-80
[7] = dose: 400.0 mg/kg/injection, schedule: Q01DX001 (ip), vehicle: saline with Tween-80
[8] = dose: 400.0 mg/kg/injection, schedule: Q04DX002 (ip), vehicle: saline with Tween-80
[9] = dose: 400.0 mg/kg/injection, schedule: Q04DX003 (ip), vehicle: saline with Tween-80
[10] = dose: 100.0 mg/kg/injection, schedule: Q01DX009 (ip), vehicle: saline with Tween-80
[11] = dose: 200.0 mg/kg/injection, schedule: Q01DX009 (ip), vehicle: saline with Tween-80
[12] = dose: 400.0 mg/kg/injection, schedule: Q01DX009 (ip), vehicle: saline with Tween-80
[13] = dose: 100.0 mg/kg/injection, schedule: Q01DX001 (ip), vehicle: saline
[14] = dose: 100.0 mg/kg/injection, schedule: Q01DX001 (ip), vehicle: Klucel (hydroxypropylcellulose) (HPC)
[15] = dose: 200.0 mg/kg/injection, schedule: Q01DX001 (ip), vehicle: Klucel (hydroxypropylcellulose) (HPC)
[16] = dose: 400.0 mg/kg/injection, schedule: Q01DX001 (ip), vehicle: Klucel (hydroxypropylcellulose) (HPC)
[17] = dose: 100.0 mg/kg/injection, schedule: Q01DX009 (ip), vehicle: saline
[18] = dose: 200.0 mg/kg/injection, schedule: Q01DX009 (ip), vehicle: saline
[19] = dose: 400.0 mg/kg/injection, schedule: Q01DX009 (ip), vehicle: saline
[20] = dose: 200.0 mg/kg/injection, schedule: Q01DX001 (ip), vehicle: saline
[21] = dose: 100.0 mg/kg/injection, schedule: Q04DX003 (ip), vehicle: saline
[22] = dose: 200.0 mg/kg/injection, schedule: Q04DX003 (ip), vehicle: saline
[23] = dose: 400.0 mg/kg/injection, schedule: Q04DX003 (ip), vehicle: saline

Measured: T/C

CCN(C(=O)c1ccccc1C)C(c1ccccc1)P(=O)(c1ccccc1)c1ccccc1 (stereo not given)
inactive: [1] 118 % of control | [2] 98 % of control and 100 % of control | [3] 109 % of control and 86 % of control | [4] 100 % of control | [5] 93 % of control and 102 % of control | [6] 94 % of control and 96 % of control | [7] 97 % of control | [8] 93 % of control and 90 % of control | [9] 93 % of control and 112 % of control

O=C(Nc1ccc(Cl)cc1[N+](=O)[O-])Oc1ccccc1C(=O)Nc1ccccc1
inactive: [10] 92 % of control | [2] 93 % of control and 95 % of control | [3] 97 % of control | [11] 91 % of control | [5] 98 % of control and 88 % of control | [6] 95 % of control | [12] 89 % of control and 92 % of control | [8] 97 % of control and 91 % of control | [9] 93 % of control

Nc1cnccc1NCCN1CCN(c2ccccc2)CC1
inactive: [13] 98 % of control

ClC1=C(Cl)C(Cl)(Cl)SC1(Cl)Cl
inactive: dose: 3.12 mg/kg/injection, schedule: Q01DX009 (ip), vehicle: acetone 90 % of control | dose: 6.25 mg/kg/injection, schedule: Q01DX009 (ip), vehicle: acetone 101 % of control | dose: 12.5 mg/kg/injection, schedule: Q01DX001 (ip), vehicle: acetone 99 % of control | dose: 12.5 mg/kg/injection, schedule: Q01DX009 (ip), vehicle: acetone 96 % of control | dose: 12.5 mg/kg/injection, schedule: Q04DX003 (ip), vehicle: acetone 92 % of control | dose: 25.0 mg/kg/injection, schedule: Q01DX001 (ip), vehicle: acetone 100 % of control | dose: 50.0 mg/kg/injection, schedule: Q01DX001 (ip), vehicle: acetone 99 % of control

Cc1ccc(S(=O)(=O)OC2C(C3CSC(=O)O3)OC3OC(C)(C)OC32)cc1 (stereo not given)
inactive: dose: 25.0 mg/kg/injection, schedule: Q04DX002 (ip), vehicle: Klucel (hydroxypropylcellulose) (HPC) 103 % of control | dose: 50.0 mg/kg/injection, schedule: Q04DX002 (ip), vehicle: Klucel (hydroxypropylcellulose) (HPC) 100 % of control | dose: 100.0 mg/kg/injection, schedule: Q04DX002 (ip), vehicle: Klucel (hydroxypropylcellulose) (HPC) 97 % of control

CCCc1c(N)nc(N)nc1C(=O)O
inactive: [14] 94 % of control | dose: 100.0 mg/kg/injection, schedule: Q01DX009 (ip), vehicle: Klucel (hydroxypropylcellulose) (HPC) 100 % of control | [15] 94 % of control | dose: 200.0 mg/kg/injection, schedule: Q01DX009 (ip), vehicle: Klucel (hydroxypropylcellulose) (HPC) 109 % of control | [16] 92 % of control | dose: 400.0 mg/kg/injection, schedule: Q01DX009 (ip), vehicle: Klucel (hydroxypropylcellulose) (HPC) 86 % of control

COc1cc2c(cc1OC)C(=O)C(Br)N(S(=O)(=O)c1ccc(C)cc1)CC2 (stereo not given)
inactive: [17] 96 % of control | [18] 97 % of control | [19] 93 % of control

O=C(CSc1cc(Cl)c(Cl)cc1Cl)Nc1cccc(Cl)c1
inactive: [1] 95 % of control | [4] 98 % of control | [7] 90 % of control

CCSc1nc(/C=N/NS(=O)(=O)c2ccccc2)c(F)c(=O)[nH]1
inactive: dose: 100.0 mg/kg/injection, schedule: Q01DX001 (ip), vehicle: other 105 % of control | dose: 200.0 mg/kg/injection, schedule: Q01DX001 (ip), vehicle: other 101 % of control | dose: 400.0 mg/kg/injection, schedule: Q01DX001 (ip), vehicle: other 96 % of control

O=C1CC(C(F)(F)F)(C(F)(F)F)O1
inactive: dose: 100.0 mg/kg/injection, schedule: Q04DX002 (ip), vehicle: other 120 % of control | dose: 200.0 mg/kg/injection, schedule: Q04DX002 (ip), vehicle: other 102 % of control | dose: 400.0 mg/kg/injection, schedule: Q04DX002 (ip), vehicle: other 102 % of control

COCCOC(=O)c1ccc(C(N)=NC2CCCCC2)cc1
inactive: [13] 96 % of control | [20] 97 % of control

COc1nc(N)c(C(N)=O)cc1C#N
inactive: dose: 87.0 mg/kg/injection, schedule: Q04DX003 (ip), vehicle: Klucel (hydroxypropylcellulose) (HPC) 97 % of control

Brc1ccc(Nc2c3ccccc3nc3ccccc23)cc1
inactive: [3] 97 % of control | [6] 103 % of control

Nc1nc2nn(-c3ccccc3)nc2c(=O)[nH]1
inactive: [3] 100 % of control | [6] 93 % of control | [9] 94 % of control

CCCc1cn(C2OC(=O)c3ccccc32)c2ccccc12 (stereo not given)
inactive: [13] 96 % of control | [21] 109 % of control | [20] 105 % of control | [22] 97 % of control | dose: 400.0 mg/kg/injection, schedule: Q01DX001 (ip), vehicle: saline 102 % of control | [23] 101 % of control

CN(C)Cc1cc(C(C)(C)C)cc(C2CCCCC2)c1O
inactive: [10] 100 % of control | [11] 94 % of control | [12] 107 % of control

CCOC(=O)Cc1ccc(CC(=O)OCC)cc1
inactive: dose: 75.0 mg/kg/injection, schedule: Q04DX003 (ip), vehicle: saline 100 % of control | dose: 150.0 mg/kg/injection, schedule: Q04DX003 (ip), vehicle: saline 105 % of control | dose: 300.0 mg/kg/injection, schedule: Q04DX003 (ip), vehicle: saline 96 % of control

C[N+](C)(C)CC[N+](C)(C)C
inactive: [17] 108 % of control | [21] 100 % of control | [18] 106 % of control | [22] 110 % of control | [19] 100 % of control | [23] 97 % of control

Cc1ccccc1C1c2ccccc2C(=O)c2cccc(C)c21 (stereo not given)
inactive: [10] 101 % of control | [3] 89 % of control | [11] 101 % of control | [6] 102 % of control | [12] 97 % of control | [9] 94 % of control

CNC(=O)C(c1ccccc1)C(O)c1ccccc1 (stereo not given)
inactive: dose: 50.0 mg/kg/injection, schedule: Q01DX001 (ip), vehicle: saline 103 % of control | [13] 101 % of control | [20] 103 % of control

Nc1cccc(C(=O)CC(=O)Nc2nccs2)c1
inactive: dose: 50.0 mg/kg/injection, schedule: Q04DX003 (ip), vehicle: Klucel (hydroxypropylcellulose) (HPC) 90 % of control | [14] 98 % of control | dose: 100.0 mg/kg/injection, schedule: Q04DX003 (ip), vehicle: Klucel (hydroxypropylcellulose) (HPC) 95 % of control | [15] 103 % of control | dose: 200.0 mg/kg/injection, schedule: Q04DX003 (ip), vehicle: Klucel (hydroxypropylcellulose) (HPC) 90 % of control | [16] 98 % of control

O=C(Nc1cccnc1)C1=Cc2ccccc2OC1
inactive: [10] 95 % of control | [3] 103 % of control | [11] 94 % of control | [6] 98 % of control | [12] 105 % of control | [9] 107 % of control

Cc1cccc(C)[n+]1CC(=O)CCCCCCC(=O)C[n+]1c(C)cccc1C
inactive: dose: 0.25 mg/kg/injection, schedule: Q04DX003 (ip), vehicle: saline 98 % of control | dose: 0.5 mg/kg/injection, schedule: Q04DX003 (ip), vehicle: saline 105 % of control | dose: 1.0 mg/kg/injection, schedule: Q04DX003 (ip), vehicle: saline 101 % of control

O=C1CC(=O)N(c2ccccc2)C(=O)N1
inactive: dose: 50.0 mg/kg/injection, schedule: Q01DX009 (ip), vehicle: saline with Tween-80 99 % of control | [10] 99 % of control | [11] 99 % of control

— PubChem BioAssay AID248 (DTP/NCI, 2004)
